Paper PMC2845980 (Bioorganic & medicinal chemistry, 2010)
Read-outs that look alike come from different tables or passages of the source.

Tests used:
tgDHFR = tgDHFR (Toxoplasma gondii, UniProt Q07422); test: Spectrophotometric DHFR inhibition assay, T. gondii enzyme; format: biochemical; conditions: IC50 rlDHFR / IC50 tgDHFR
Solubility = format: physicochemical; conditions: qualitative statement
[1] = first study, i.p. 50 mg/kg/day, mouse
[2] = second study, i.p. 50 mg/kg/day, mouse

Sequence of tgDHFR (Q07422 whole entry): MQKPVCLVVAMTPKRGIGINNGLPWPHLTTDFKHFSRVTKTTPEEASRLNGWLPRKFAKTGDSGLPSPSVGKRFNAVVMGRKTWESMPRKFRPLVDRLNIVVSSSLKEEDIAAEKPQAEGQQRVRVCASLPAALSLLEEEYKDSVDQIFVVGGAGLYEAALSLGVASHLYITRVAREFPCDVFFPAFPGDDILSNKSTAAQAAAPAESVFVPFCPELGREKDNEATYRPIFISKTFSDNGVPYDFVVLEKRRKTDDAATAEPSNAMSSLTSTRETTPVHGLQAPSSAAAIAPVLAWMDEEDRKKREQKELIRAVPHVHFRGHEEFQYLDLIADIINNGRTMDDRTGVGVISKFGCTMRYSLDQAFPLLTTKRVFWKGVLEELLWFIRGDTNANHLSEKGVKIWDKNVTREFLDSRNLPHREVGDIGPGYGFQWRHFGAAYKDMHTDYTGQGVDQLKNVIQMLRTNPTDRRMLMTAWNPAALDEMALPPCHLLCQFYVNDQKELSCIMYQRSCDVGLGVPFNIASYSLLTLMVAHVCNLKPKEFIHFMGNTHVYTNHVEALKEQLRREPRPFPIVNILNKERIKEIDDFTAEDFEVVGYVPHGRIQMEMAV

Compound	selectivity ratio rl/tg (tgDHFR)	solubility properties (Solubility)	Mean counts of T. gondii per 1000x field in peritoneal harvest (T. gondii; [1]) [counts per 1000x field]	Median counts of T. gondii per 1000x field in peritoneal harvest (T. gondii; [1]) [counts per 1000x field]	gross toxicity in treated mice (T. gondii; mouse, in vivo, ip, 50 mg/kg/day)	reduction of the median counts per 1000x field versus control (T. gondii; second study, i.p. 50 mg/kg/day)	Mean counts of T. gondii per 1000x field in peritoneal harvest (T. gondii; [2]) [counts per 1000x field]	Median counts of T. gondii per 1000x field in peritoneal harvest (T. gondii; [2]) [counts per 1000x field]
Cc1c(Sc2ccc3ccccc3c2)[nH]c2nc(N)nc(N)c12 [Compound 90, 2,4-Diamino-5-methyl-6-(2-naphthylthio)pyrrolo[2,3-d]pyrimidine]	5	–	–	–	–	–	–	–
Cc1cccc(C)c1Sc1[nH]c2nc(N)nc(N)c2c1C [Compound 91, 2,4-Diamino-5-methyl-6-(2′,6′-dimethylphenylthio)pyrrolo[2,3-d]pyrimidine]	–	poor solubility properties	12.5	7.0	no gross evidence of toxicity	more than two-fold	8.9	5.0
Cc1cccc(C)c1Sc1[nH]c2nc(N)nc(N)c2c1C.Cl [Compound 95, 2,4-Diamino-5-methyl-6-(2′,6′-dimethylphenylthio)pyrrolo[2,3-d]pyrimidine hydrochloride salt]	–	more soluble	–	–	–	–	2.4	1.0
